According to article PMC11477209, “Toxicological Evaluation of Kaempferol and Linearolactone as Treatments for Amoebic Liver Abscess Development in Mesocricetus auratus” (International Journal of Molecular Sciences, 2024):
Values after ≈ are worked out from the molar mass of the structure shown.

Legend:
[1] = tested on: E. histolytica trophozoites; assay: Cell morphology by confocal microscopy (actin); format: cell-based, Entamoeba histolytica; settings: phalloidin-rhodamine, treatment with IC50
Procedure: Then, the culture medium was removed, and the adhered cells were fixed with 4% paraformaldehyde for 1 h at 37 °C. The samples were washed three times with 1× PBS and incubated with 1:50 phalloidin–rhodamine (R415, Invitrogen; Carlsbad, CA, USA) for 1 h at 37 °C. Finally, the cells were washed, mounted with VectaShield/DAPI medium (Vector Laboratories; Newark, CA, USA), and observed with a confocal microscope (LSM-700, Zeiss; Oberkochen, Germany).

[2] = in vivo
Procedure: After blood samples were obtained, the hamsters were sacrificed with a lethal dose of sodium pentobarbital, followed by a cervical fracture. They were mounted on a dissecting board for the necropsy. A complete mid-laparotomy was performed to remove the lungs, spleen, heart, liver, and kidneys. An excisional biopsy was performed to recover the ALA lesions for morphometric analysis. The organs and ALA lesions were rinsed with 1× PBS, weighed, and adherent tissue was removed. […] Later, the inclusion protocol was performed to obtain histological sections (3 μm thick) with a rotatory microtome (RM2125-RTS, Leica; Wetzlar, Germany). Tissue slices were stained with hematoxylin-eosin (Merck; Rahway, NJ, USA), mounted on coverslips with Entellan^TM-New (Merck; Rahway, NJ, USA), and observed with optical microscopy (Eclipse 80i, Nikon; Tokio, Japan).

[3] = tested on: E. histolytica trophozoites (virulent HM-1 strain); assay: microbe, parasite or virus in culture; settings: Entamoeba histolytica, 48 h, read-out: IC50 HM-1, 48 h, flow cytometry

In the case of C[C@]12C[C@H](c3ccoc3)OC(=O)[C@H]1CCC13COC(=O)C1=CC=C[C@H]32 (stereo partly drawn) [LL, (4S,7R,9R,10S)-7-(furan-3-yl)-9-methyl-6,16-dioxatetracyclo[8.7.0.01,14.04,9]heptadeca-11,13-diene-5,15-dione], the actin cytoskeleton alteration [1] is reported as “reduction in polymerized actin”, the Heart largest diameter [2] is reported as 1.1 ± 0.07 cm and the Heart weight [2] is reported as 0.38 ± 0.08 g. The Kidneys largest diameter [2] was 1.1 ± 0.08 cm, the Kidneys weight [2] was 0.49 ± 0.07 g and the Liver largest diameter [2] was 3.94 ± 0.16 cm. It also gave a Liver weight [2] of 5.5 ± 0.9 g, a Lungs largest diameter [2] of 2.4 ± 0.1 cm and a Lungs weight [2] of 0.74 ± 0.06 g. The Spleen largest diameter [2] was 3.4 ± 0.4 cm, the Spleen weight [2] was 0.26 ± 0.05 g and the IC50 [3] was 7.8 µg/mL (≈ 22.9 µM).
